In article PMC8778022, “Synthesis and Biological Activity of 3-(Heteroaryl)quinolin-2(1H)-ones Bis-Heterocycles as Potential Inhibitors of the Protein Folding Machinery Hsp90” (Molecules, 2022):
Entries after “also recorded” stand apart in the source; their conditions may differ. Where two headings read alike, the source gives them in different places.

What was measured:
MDA-MB-231 cells = experiment: MTS cell viability assay, MDA-MB-231 cells, 72 h; assay type: cell-based, human; conditions: % of viable cells compared to untreated cells 100%; for viability at 10 µM / viability at 25 µM / viability at 15 µM: Homo sapiens, MDA-MB-231, 72 h
Description: (§1) Upon completion of their syntheses, the in vitro activity of quinolone derivatives 3a–f, 4a–h, and 5a,b was evaluated by their growth-inhibitory potency in three cancer cell lines. At first, the viability of the synthesized compounds was examined with the MDA-MB-231 […] breast cancer cell line at concentrations of 10 µM, 15 µM, and 25 µM. Prostate cancer PC-3 cells and human fetal lung fibroblast MRC-5 cell lines were also subjected to this series of compounds at a unique concentration of 15 µM.
(§2) MDA-MB-231 cells were grown in L15 supplemented with 15% serum, 2 mM glutamine, and 22 mM sodium bicarbonate in the presence of Penicillin/Streptomycin antibiotic mixture. PC-3 cells were cultured in RPMI 1640 supplemented with 10% serum and 2 mM glutamine in the presence of Penicillin/Streptomycin antibiotic mixture. MRC-5 cells were cultured in EMEM supplemented with 10% serum and 2 mM glutamine in the presence of Penicillin/Streptomycin antibiotic mixture (Reagents were purchased from Sigma Aldrich, Saint-Quentin-Fallavier, France).
(§3) Cells were treated for 72 h with 10, 15, and 25 µM of the selected substances. Control cells were treated with the equivalent in DMSO.
(§4) Cell survival was assessed using the CellTiter Aqueous One Proliferation assay (Promega, Charbonnières-les-Bains, France) whereby 2500 or 5000 cells per well were seeded in 96-well plates in 100 µL. At the end of the treatment, 20 µL of reagent was added, and absorbance readings were taken at 492 nm on a 96-well plate reader after 3 h of contact (on average).

PC-3 cells = experiment: MTS cell viability / growth inhibition assay, PC-3 cells, 72 h; assay type: cell-based, human; conditions: for GI50: PC-3, concentration needed to reduce cell growth by 50%, 72 h treatment, estimated, read-out: GI50 anti-proliferative effect PC-3; for viability at 15 µM: PC-3, 72 h; for viability at 15 µM / Cell viability [%] PC-3 (15 µM): 72 h, MTS, % of viable cells compared to untreated cells 100%
Description: as §1
Then, the growth inhibitory activities against PC-3 prostate cancer cell line were measured for the selected 3-heteroaryl-quinolin-2(1H)-one derivatives 3a–e.
as §2, §3, §4

Hsp90α/β = experiment: Western blot of Hsp90 level in PC-3 cells; assay type: cell-based, human; conditions: 15 µM, 72 h, without triggering the HSR
Description: (§5) For protein expression analysis, cells were seeded at a rate of 0.75 × 10^6 cells on a 25 cm^2 surface. At the end of the treatment the cells were washed and lysed with RIPA buffer (Sigma Aldrich, Saint-Quentin-Fallavier, France city, country) to which protease inhibitors (Sigma Aldrich, Saint-Quentin-Fallavier, France SIGMA) were added. After 30 min of lysis on ice, the samples were centrifuged (3500 rpm, 10 min) and stored at −20 °C. Total protein concentration was obtained using the Bio-rad Protein Assay reagent (Bio-Rad Laboratories, Marnes-la-Coquette, France city, country). […] Immunorevelation was performed as follows: 1 h saturation of the membrane with TBS-Tween (0.1%)–5% skim milk followed by overnight incubation in primary antibody solution (antibodies were from Santa Cruz Biotechnologies, Clinisciences, Nanterre, France or from Sigma Aldrich, Saint-Quentin-Fallavier, France)(See Table 3). After 1 h of washing in 0.1% TBS-Tween, the membranes were contacted with the second horseradish peroxidase-coupled antibody. Detection of the chemiluminescence signal (SuperSignal Pierce reagent, Fisher Scientific, Illkirch, France) was performed using the ChemiBis gel Imager (DNR Bio-Imaging Systems, Israel).
(§6) Figure 2 Effects of quinolone analogues 3a–e, 4e and 5b on HSP90 machinery protein levels and on CDK-4 stability. PC-3 cells were grown and exposed to Hsp90 inhibitors (3a–e, 4e and 5b, 15 µM) as described in Experimental section for 72 h and cell lysates were analyzed by Western blotting with regard to the levels of CDK-4, Hsp90α/β and Hsp70. NT corresponds to untreated cells; D, DMSO-treated cells were used as controls, GADPH level is used for control in protein loading on gels.

Hsp70 = experiment: Western blot of Hsp70 level in PC-3 cells; assay type: cell-based, human; conditions: 15 µM, 72 h, without triggering the HSR
Description: as §5, §6

CDK-4 = experiment: Western blot of Hsp90 client protein CDK-4 in PC-3 cells; assay type: cell-based, human; conditions: for CDK-4 client protein level (Western blot): PC-3 cells, 15 µM, 72 h; for CDK-4 client protein level: as printed in abstract and conclusions
Description: as §5, §6

[1] = MTS cell viability assay, MRC-5 cells, 72 h; assay type: cell-based, human; conditions: human, MRC-5 fetal lung fibroblast cells, % of viable cells compared to untreated cells 100%
Description: as §1, §2, §3, §4

SkBr3 cell lines = conditions: cited from earlier work
[2] = system: human fetal lung fibroblast MRC-5; experiment: MTS cell viability assay, MRC-5 cells, 72 h; assay type: cell-based; conditions: % of viable cells compared to untreated cells 100%
Description: as §1, §2, §3, §4

MCF7 = conditions: Figure 1; cited from earlier work

| Structure (SMILES) | viability at 10 µM (MDA-MB-231 cells; 10 µM) [%] | viability at 25 µM (MDA-MB-231 cells; 25 µM) [%] | viability at 15 µM (PC-3 cells; Homo sapiens) [%] | viability at 72 h, 15 µM [1] [%] | viability at 15 µM (MDA-MB-231 cells) [%] | other results |
| --- | --- | --- | --- | --- | --- | --- |
| O=c1c(-c2nc3ccccc3n2Cc2ccccc2)cc2ccccc2n1Cc1ccccc1 [3a] | < 47 | ~30 | – | – | – | GI50 (PC-3 cells; Homo sapiens): 48 µM |
| COc1ccc(Cn2c(-c3cc4ccccc4n(C)c3=O)nc3cc(C)c(C)cc32)cc1 [3b] | – | ~30 | ≥ 56 | – | – | Hsp90 level (heat shock response) (Hsp90α/β): stabilize; Hsp70 level (heat shock response) (Hsp70): stabilize; CDK-4 client protein level (Western blot) (CDK-4): more decreased; CDK-4 client protein level (CDK-4): significant decrease; GI50 (PC-3 cells; Homo sapiens): 28 µM; IC50 (PC-3 cells; Homo sapiens, as printed in abstract and b26, refers to Table 2 (PC-3, 72 h), read-out: IC50 anti-proliferative activity): 28 µM |
| Cn1c(=O)c(-c2nc3ccccc3s2)cc2ccccc21 [3c] | – | – | – | – | – | GI50 (PC-3 cells; Homo sapiens): 37 µM |
| CSc1ncnc2c1nc(-c1cc3ccccc3n(C)c1=O)n2Cc1ccccc1 [3e, 3-(6-Methylthiopurine)-2-quinolone] | – | – | ≥ 56 | – | – | GI50 (PC-3 cells; Homo sapiens): 38 µM |
| COc1cc(-c2ncnc3c2nc(-c2cc4ccccc4n(C)c2=O)n3Cc2ccccc2)cc(OC)c1OC [4d, 3-[9-benzyl-6-(3,4,5-trimethoxyphenyl)-9H-purin-8-yl]-1-methylquinolin-2(1H)-one] | – | – | – | 71 to 79 | – | – |
| Cc1cc(C)cc(-c2ncnc3c2nc(-c2cc4ccccc4n(C)c2=O)n3Cc2ccccc2)c1 [4e, 3-[9-benzyl-6-(3,5-dimethylphenyl)-9H-purin-8-yl]-1-methylquinolin-2(1H)-one] | – | – | ≥ 56 | 71 to 79 | – | Hsp90 level (heat shock response) (Hsp90α/β): stabilize; Hsp70 level (heat shock response) (Hsp70): stabilize; CDK-4 client protein level (Western blot) (CDK-4): degraded; also recorded: more decreased; CDK-4 client protein level (CDK-4): significant decrease |
| Cn1c(=O)c(-c2nc3c(-c4ccc(F)cc4)ncnc3n2Cc2ccccc2)cc2ccccc21 [4h, 3-[9-benzyl-6-(4-fluorophenyl)-9H-purin-8-yl]-1-methylquinolin-2(1H)-one] | – | ~30 | – | – | – | – |
| COc1ccc(Nc2ncnc3c2nc(-c2cc4ccccc4n(C)c2=O)n3Cc2ccccc2)cc1 [5a, 3-{9-benzyl-6-[(4-methoxyphenyl)amino]-9H-purin-8-yl}-1-methylquinolin-2(1H)-one] | < 47 | – | – | – | – | – |
| COc1cc(Nc2ncnc3c2nc(-c2cc4ccccc4n(C)c2=O)n3Cc2ccccc2)cc(OC)c1OC [5b, 3-{9-benzyl-6-[(3,4,5-trimethoxyphenyl)amino]-9H-purin-8-yl}-1-methylquinolin-2(1H)-one] | – | – | – | – | – | Hsp90 level (heat shock response) (Hsp90α/β): stabilize; Hsp70 level (heat shock response) (Hsp70): stabilize; CDK-4 client protein level (Western blot) (CDK-4): degraded |
| CN1CCC(Oc2ccc3cc(-c4cc5ccccc5s4)c(=O)oc3c2)CC1 [(I)] | – | – | – | – | – | IC50 (SkBr3 cell lines; cell death, SkBr3): 0.98 µM |
| O=c1c(-c2nc3ccccc3n2Cc2ccccc2)cc2ccccc2n1Cc1ccccc1 [C00001] | – | – | 70 | 80 | 47 | Cell viability [%] MDA-MB-231 (MDA-MB-231 cells; 25 µM): 36% |
| COc1ccc(Cn2c(-c3cc4ccccc4n(C)c3=O)nc3cc(C)c(C)cc32)cc1 [C00002] | 60 | – | – | 95 | 60 | Cell viability [%] MDA-MB-231 (MDA-MB-231 cells; 25 µM): 23%; Cell viability [%] PC-3 (15 µM) (PC-3 cells): 61% |
| Cn1c(=O)c(-c2nc3ccccc3s2)cc2ccccc21 [C00003] | 55 | 65 | 61 | 88 | 72 | – |
| Cn1c(=O)c(-c2nc3ccccc3o2)cc2ccccc21 [C00004] | 98 | 98 | – | – | 98 | – |
| CSc1ncnc2c1nc(-c1cc3ccccc3n(C)c1=O)n2Cc1ccccc1 [C00005] | 73 | 50 | – | 88 | 70 | Cell viability [%] PC-3 (15 µM) (PC-3 cells): 61% |
| Cn1c(=O)c(-c2cc3ccccc3s2)cc2ccccc21 [C00006] | 98 | – | – | – | – | – |
| COc1ccc(-c2ncnc3c2nc(-c2cc4ccccc4n(C)c2=O)n3Cc2ccccc2)cc1 [C00007] | 66 | 87 | 73 | 94 | 81 | – |
| COc1cccc(-c2ncnc3c2nc(-c2cc4ccccc4n(C)c2=O)n3Cc2ccccc2)c1 [C00008] | 70 | 61 | 106 | 92 | 69 | – |
| Cn1c(=O)c(-c2nc3c(-c4ccccc4)ncnc3n2Cc2ccccc2)cc2ccccc21 [C00009] | 71 | 35 | 97 | 82 | 62 | – |
| COc1cc(-c2ncnc3c2nc(-c2cc4ccccc4n(C)c2=O)n3Cc2ccccc2)cc(OC)c1OC [C00010] | 60 | 55 | 89 | – | 47 | – |
| Cc1cc(C)cc(-c2ncnc3c2nc(-c2cc4ccccc4n(C)c2=O)n3Cc2ccccc2)c1 [C00011] | 57 | 50 | – | – | 62 | Cell viability [%] MRC-5 (15 µM) [2]: 71%; Cell viability [%] PC-3 (15 µM) (PC-3 cells): 56% |
| Cn1c(=O)c(-c2nc3c(-c4cccc5ccccc45)ncnc3n2Cc2ccccc2)cc2ccccc21 [C00012] | 73 | 92 | 88 | 98 | 81 | – |
| Cn1c(=O)c(-c2nc3c(-c4ccc(Cl)cc4)ncnc3n2Cc2ccccc2)cc2ccccc21 [C00013] | 56 | – | 91 | – | 57 | Cell viability [%] MDA-MB-231 (MDA-MB-231 cells; 25 µM): 27%; Cell viability [%] MRC-5 (15 µM) [2]: 79% |
| Cn1c(=O)c(-c2nc3c(-c4ccc(F)cc4)ncnc3n2Cc2ccccc2)cc2ccccc21 [C00014] | 55 | – | 97 | 84 | 42 | Cell viability [%] MDA-MB-231 (MDA-MB-231 cells; 25 µM): 17% |
| COc1ccc(Nc2ncnc3c2nc(-c2cc4ccccc4n(C)c2=O)n3Cc2ccccc2)cc1 [C00015] | – | 69 | 87 | 91 | 63 | Cell viability [%] MDA-MB-231 (MDA-MB-231 cells; 10 µM): 62% |
| COc1cc(Nc2ncnc3c2nc(-c2cc4ccccc4n(C)c2=O)n3Cc2ccccc2)cc(OC)c1OC [C00016] | 44 | 61 | 88 | 81 | 55 | – |
| COc1ccc(C(=O)Nc2cc3cc(Br)ccc3n(C)c2=O)cc1 [C00017, reference compound] | 76 | – | – | – | – | – |
| CO[C@@H]1[C@@H](OC(N)=O)[C@@H](O)[C@H](Oc2ccc3c(O)c(NC(=O)c4ccc(O)c(CC=C(C)C)c4)c(=O)oc3c2C)OC1(C)C [Novobiocin, novobiocin] | – | – | – | – | – | IC50 (MCF7): 260 µM |
| CC(C)NCCCn1c(Sc2cc3c(cc2I)OCO3)nc2c(N)ncnc21 [PU-H] | – | – | – | – | – | IC50 (SkBr3 cell lines; Figure 1): 0.05 to 0.09 µM |
